Assay results published in patent publication US6713051B2, “Antiperspirant or deodorant compositions” (Unilever Home & Personal Care USA division of Conopco, Inc., priority 2001, dated 2004).

How the values were obtained:
Transglutaminase (TGase) = experiment: Keratinocyte transglutaminase (TGase) assay; format: cell-based, human; conditions: for TGase/ng DNA: 4 days, 30 μM Ca2+, control (0 μM) 16.82
Experimental: (§1) Human foreskin keratinocytes (passage 3) were seeded at 4000 cells/well in 96 well plates in Keratinocyte Growth Medium (abbreviated to KGM) containing 0.03 mM calcium and grown for 3 days at 37° C. The cells were then treated with PPAR ligands in KGM containing 0.03 mM calcium for 4 days prior to harvest. Stock solutions of PPAR ligands were dissolved in dimethylsulphoxide (DMSO) and diluted in KGM before adding to the cells. […] The harvested cells were washed 3× in phosphate buffered saline (PBS) and extracted in 1% Triton X100, 50 mM (tris[hydroxymethyl]aminomethane) (Tris) pH 8.0 plus protease inhibitors pepstatin and leupeptin (100 μl/well). The extract was assayed for DNA content using the Pico Green DNA assay (Molecular Probes, Inc.).
The remaining cell debris attached to the 96 well plate was incubated with 70 μl/well of TGase assay buffer (50 mM Tris™ pH 8.0, 5 mM DTT, 50 mM CaCl2, 150 mM NaCl, 15 μM Texas Red Cadaverine) and incubated for 16 hours at 37° C. The plates were then washed with distilled water (×2) and the fluorescence due to cross-linked Texas Red cadaverine was determined using excitation at 590 nm and emission of 645 nm.
Cultured keratinocytes were treated with cis-9-trans-11-conjugated linoleic acid (CT-CLA) for 4 days. The cells were extracted with Tris-1% Triton X100™ and the non-extractable TGase activity associated with the cells was determined using Texas Red Cadaverine (in accordance with the methods described above).

[1] = test system: Human foreskin keratinocytes; experiment: Keratinocyte proliferation analysis (DNA content per well, Pico Green); format: cell-based; conditions: for keratinocyte DNA synthesis activity, statement: 1 way ANOVA, p<0.05; for DNA: 4 days
Experimental: as §1
Cultured keratinocytes were treated with cis-9-trans-11 conjugated linoleic acid (CT-CLA) for 4 days. The cells were extracted with Tris-1% Triton X100 and the DNA content per well was determine by the Pico Green assay in accordance with the above described procedure.

human PPARα = target: T1, human PPARα (Homo sapiens, UniProt Q07869); experiment: PPARα reporter gene assay (firefly luciferase, transiently transfected Cos-7 cells); format: cell-based; conditions: for Result (superior activity class achieved): class reached; for Pass at (lowest tested administration level at which the test material passed): pass = activation greater than oleic acid at 100 μM, commonly >1.57 times vehicle control, 24 h treatment
T1 construct: The coding region of a human PPARα cDNA was inserted downstream of the CMV promoter; expressed in transfected cells; host or cells: Cos-7 cells, transient transfection (pcDNA3.1(−)-PPARα, pRSV-RXRα, 3xPPRE-TK-luc reporter, pRL-TK)
T1 sequence (Q07869 1-468): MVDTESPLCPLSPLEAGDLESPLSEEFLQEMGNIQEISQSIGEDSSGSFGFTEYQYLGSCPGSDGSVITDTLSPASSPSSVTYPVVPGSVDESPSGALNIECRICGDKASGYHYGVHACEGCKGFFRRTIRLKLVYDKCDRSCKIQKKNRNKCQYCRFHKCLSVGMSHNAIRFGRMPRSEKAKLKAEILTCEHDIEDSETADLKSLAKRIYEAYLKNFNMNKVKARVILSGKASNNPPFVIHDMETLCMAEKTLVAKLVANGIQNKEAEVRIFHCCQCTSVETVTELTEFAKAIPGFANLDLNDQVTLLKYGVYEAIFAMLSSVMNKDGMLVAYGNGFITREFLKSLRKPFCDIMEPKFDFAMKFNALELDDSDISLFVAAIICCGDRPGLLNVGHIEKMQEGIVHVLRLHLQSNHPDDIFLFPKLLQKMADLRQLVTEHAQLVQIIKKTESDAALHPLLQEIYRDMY
T1 sequence (P19793 1-462 partner): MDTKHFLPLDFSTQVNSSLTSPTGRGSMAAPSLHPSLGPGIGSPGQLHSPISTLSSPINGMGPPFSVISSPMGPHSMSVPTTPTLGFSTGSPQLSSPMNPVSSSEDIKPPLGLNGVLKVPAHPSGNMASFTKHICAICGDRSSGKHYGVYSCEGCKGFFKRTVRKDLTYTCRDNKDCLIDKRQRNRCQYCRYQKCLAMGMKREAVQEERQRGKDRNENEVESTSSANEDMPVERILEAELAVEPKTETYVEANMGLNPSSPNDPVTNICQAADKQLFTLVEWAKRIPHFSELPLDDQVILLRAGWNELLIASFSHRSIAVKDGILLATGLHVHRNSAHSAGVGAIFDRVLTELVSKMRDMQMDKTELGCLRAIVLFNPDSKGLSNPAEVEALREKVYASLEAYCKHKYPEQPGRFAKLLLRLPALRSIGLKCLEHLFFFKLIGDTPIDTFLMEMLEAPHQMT
Source text: One convenient reporter assay for determining whether a fatty acid material is PPARα activating is based upon the firefly luciferase gene.
Fatty acids were screened to identify PPAR activating fatty acids using a reporter assay.
This assay relied on ligands binding to and activating the PPARα protein, which, in turn, activated genes under the control of PPAR response elements (PPRE). In the assay, the firefly luciferase gene was cloned behind a promoter containing 3 copies of the fatty acid binding protein PPRE.
The assay was performed by transient transfection of Cos-7 cells with a mixture of four DNA plasmids. These were:
1) PPAR reporter gene construct (Modified pNF-KB-luc reporter vector (Firefly luciferase reporter vector commercially available form Clontech (NF-kB response element, TK minimal promoter, luc^+, f1 origin, pUC origin, amp^r)). A tandem repeat of 3 PPAR response elements (PPREs) corresponding to the PPRE found in the fatty acid binding protein promoter was inserted upstream of the minimal TK promoter to replace the NF-κB response element);
2) 2) Over-expressing PPARα construct (Modified pcDNA3.1(−) vector (A mammalian expression vector commercially available from Invitrogen (CMV promoter, f1 origin, SV40 origin, ColE1 origin, neo^r, amp^r)). The coding region of a human PPARα cDNA was inserted downstream of the CMV promoter of pcDNA3.1 (−)). […] The coding region of a human RXRα cDNA has been inserted downstream of the RSV promoter. (Gift of V. K. K. Chatterjee, Addenbrooke's Hospital, Cambridge)) 4) Control luciferase construct (pRL-TK Renilla luciferase reporter vector commercially available from Promega (HSV-TK promoter, T7 promoter, Rluc^+, ori, amp^r)). For the transfection, DNA was made up as a mix of PPAR reporter gene: PPARα: RXRα: control in the ratio 40:4:3:3.
Cos-7 cells were grown in Dulbecco's modified Eagle's Medium, also herein referred to as DMEM with 10% foetal calf serum, herein also referred to as FCS at 37° C., 5% CO2 to 80% confluency. Cells were then plated out in 24 well plates at 50,000 cells per well and incubated overnight in DMEM with 10% FCS at 37° C., 5% CO2. Cells were then transfected using the LipofectAMINE reagent (GibcoBRL). For each well 0.4 μg of DNA mix (in 25 μl of DMEM) was incubated with 1 μl LipofectAMINE (in 25 μl of DMEM) for 45 minutes. The mixture was then made up to 250 μl per well and added to the cells, which had been washed with 1 ml of DMEM. Cells were then incubated for 5 hours at 37° C., 5% CO2 and 250 μl DMEM with 10% SBCS (charcoal stripped bovine calf serum) added. Cells were incubated for 18 hours at 37° C., 5% CO2 before being treated with the appropriate compound/extract. Test compounds were made up as 1000× stocks (in DMSO or ethanol as appropriate) and diluted into DMEM with 10% SBCS (500 μl per well) immediately before being added to cells. Each treatment was performed in triplicate. The transfection mix was removed from the cells and replaced with the treatment mix, and incubated for 24 hours at 37° C., 5% CO2. Cells were washed with 1 ml of PBS (without calcium or magnesium) and then lysed with 100 μl per well of 1× Passive Lysis Buffer (as supplied with Promega Dual Luciferase assay kit). Lysis was allowed to continue for 15 minutes and then the lysate was assayed for Firefly and Renilla luciferase activity using the Promega Dual Luciferase assay kit. For the assay, 20 μl of lysate was taken and assayed as described in the kit instructions using a MLX microtiter™ plate luminometer (Dynex).
Firefly luciferase activity (PPAR driven) was normalised against the Renilla luciferase value for that well and the mean calculated for the three wells treated with the same agent. Activity was then expressed as fold activation over the vehicle (DMSO or ethanol) control values for that particular plate.

[2] = test system: volunteers (volar forearm); experiment: Human patch test irritation analysis; format: in vivo; conditions: 0.25% incorporated into the formulation; Wilcoxon signed rank test, 5% level
Experimental: Patch tests were performed on mixed panel of 50 volunteers with age ranges between 18 and 55, using a double-blinded protocol with randomised patch sites. Samples (20 mg) were applied to a filter paper that was placed within a Finn™ chamber (0.8 cm internal diameter). The chambers were then attached to the volar forearm using Scanpore™ tape (Norgesplater, Nor.) and left for 47 h.

interleukin-6 (IL-6) = experiment: Skin organotypic culture analysis: AP-induced IL-6 release into the medium; format: cell-based; conditions: 500 μM in medium, AP formulation topical, 24 h; Dunnet's test p<0.05
Experimental: (§2) The cultures were then incubated at 37° C., 5% CO2, and 95% relative humidity (standard cell culture conditions) for 24 h. The culture medium was assayed for the pro-inflammatory cytokine interleukin-6 (IL-6) and after washing to remove the AP formulation, the viability of the culture was determined using the Thiazoyl blue (MTT) assay (Mosmann, T. J. Immunol. Methods 65, p55 (1983). IL-6 was determined using an Immunoassay (Quantikine, R&D systems).
(§3) In this Example, skin organotypic cultures (Epiderm™, MatTek, USA) were treated topically with the above-identified AP formulation and the trans-10-cis-12 conjugated linoleic acid (TC CLA) was introduced into the medium. The cultures were then incubated at 37° C., 5% CO2, and 95% relative humidity (standard cell culture conditions) for 24 h. The culture medium was assayed for the pro-inflammatory cytokine interleukin-6 (IL-6) and after washing to remove the AP formulation, the viability of the culture was determined by the method described in Example 2.
as §2, with “hours.” for “h.”, “MTT assay.” for “Thiazoyl blue (MTT) assay (Mosmann, T. J. Immunol. Methods 65, p55 (1983).”, “ELISA assay (R&D” for “Immunoassay (Quantikine, R&D”

[3] = test system: skin organotypic cultures (Epiderm); experiment: Viability of skin organotypic cultures (MTT assay); format: cell-based
Experimental: as §2, §3
as §2, with “hours.” for “h.”, “MTT assay.” for “Thiazoyl blue (MTT) assay (Mosmann, T. J. Immunol. Methods 65, p55 (1983).”, “ELISA assay (R&D” for “Immunoassay (Quantikine, R&D”

[4] = test system: Human foreskin keratinocytes; experiment: Keratinocyte cornified envelope assay; format: cell-based; conditions: for Cornified envelopes assay: 4 days, control (0 μM) 17996
Experimental: as §1
After Tris-triton extraction for TGase assay, the cells were extracted with 100 μl/well of 2% SDS, 20 mM DTT for 16 hours at 60° C. Once extracted the SDS suspension from each well was individually filtered through polyviylidenefluoride (PVDF) membrane (Immobilon-P™ Transfer Membrane, Millipore) which had been pre-blocked in Tris Buffered Saline (TBS) containing 0.5% (v/v) Tween 20, 0.5% using a Dot Blot TM Apparatus (Bio-Rad). Each sample was washed several times with TBS/Tween buffer before the membrane was removed from the apparatus, rinsed in distilled water and silver stained using silver stain kit (Bio-Rad). The stained dot blot membrane was scanned and analysed using Phoretix Array™ software.
Cultured keratinocytes were treated with pinoleic acid for 4 days. The cells were extracted with 2% SDS, 20 mM DTT and the cornified envelopes were quantified, after filtration using a PDVF membrane, by silver staining, as described above.

In the case of `CCCCCC/C=C/C=C\CCCCCCCC(=O)O` [CLA (c9, t11), cis-9-trans-11 conjugated linoleic acid], the “TGase/ng DNA” value (Transglutaminase (TGase); 0.1 μM) is reported as 18.30, the “TGase/ng DNA” value (Transglutaminase (TGase); 1 μM) is reported as 18.46 and the “TGase/ng DNA” value (Transglutaminase (TGase); 10 μM) is reported as 28.07. For the same molecule, the “keratinocyte TGase activity, statement” value (Transglutaminase (TGase); 1 way ANOVA, p<0.05) was “significantly increase”, the “keratinocyte DNA synthesis activity, statement” value ([1]; Example 10: 10 μM) was “significantly reduce” and the DNA ([1]; Table 11: 0.1 μM, control (0 μM) 92.17) was 81.83 ng/well. The DNA ([1]; Table 11: 1 μM, control (0 μM) 92.17) was 81.33 ng/well, the DNA ([1]; Table 11: 10 μM, control (0 μM) 92.17) was 59.50 ng/well and the “Result at (lowest administration level at which super or MS activity was achieved)” value (human PPARα) was 25 μm. For the same molecule, the “Result (superior activity class achieved)” value (human PPARα) was “super (superior activity [super] (50% higher—at least 2.25 times PPARα activation))” and the “Pass at (lowest tested administration level at which the test material passed)” value (“Pass” for short) (human PPARα) was 10 μm.
`CCCCCCCCCCC/C=C\CCCCC(=O)O` [Petroselinic acid, petroselinic acid] was tested, and the “mitigation of irritation induced by the prototype pump spray” value [2] was “significantly mitigated”, the “AP-induced IL-6 release” value (interleukin-6 (IL-6)) was “significantly decrease” and the “Result at (lowest administration level at which super or MS activity was achieved)” value (human PPARα) was 100 μm. The “Result (superior activity class achieved)” value (human PPARα) was “MS (more superior activity [MS] (100% higher—at least 3 times PPARα activation))”, the “Pass” value (human PPARα) was 10 μm and the Culture viability ([3]; Example 2: AP formulation alone vs AP formulation and petroselinic acid) was “not significantly different”. For the same molecule, the Culture viability ([3]; Example 4: AP treatment alone vs AP and acid treatment) was “not significantly different”.
For hexadecatrienoic acid, the “cornified envelope formation, statement” value ([4]; Example 9: 1-10 μM, 1 way ANOVA, p<0.05) was “significantly increase”, the Cornified envelopes assay ([4]; Table 10: 0.1 μM) was 17617 arb. Units and the Cornified envelopes assay ([4]; Table 10: 1 μM) was 36017 arb. Units. The Cornified envelopes assay ([4]; Table 10: 10 μM) was 40997 arb. Units, the “keratinocyte DNA synthesis activity, statement” value ([1]; Example 14: 0.1-10 μM) was “significantly reduce” and the DNA ([1]; Table 15: 0.1 μM, control (0 μM) 1.66) was 0.98 ng/well. For the same molecule, the DNA ([1]; Table 15: 1 μM, control (0 μM) 1.66) was 1.27 ng/well, the DNA ([1]; Table 15: 10 μM, control (0 μM) 1.66) was 1.13 ng/well and the “Result at (lowest administration level at which super or MS activity was achieved)” value (human PPARα) was 10 μm. For the same molecule, the “Result (superior activity class achieved)” value (human PPARα) was “super (superior activity [super] (50% higher—at least 2.25 times PPARα activation))” and the “Pass” value (human PPARα) was 10 μm.
